Source: patent US20240238368A1, “PEPTIDE FOR PREVENTING AND TREATING FIBROSIS” (NIBEC CO., LTD., priority 2021, published 2024)

What was measured:
[1] = test system: TGFβ receptor 1; test: TGFβ receptor expression level (Western blotting); format: cell-based, human; conditions: LX-2 cells, 10 ng/ml TGF-β1 24 hours, then peptide 10, 100 or 200 μM 24 hours; FIG. 5
Procedure: (§1) 3×10^6 LX-2 cells were treated with 10 ng/ml TGF-β1 and cultured for 24 hours. The cells were treated with 10, 100, or 200 μM of the peptide of SEQ ID NO: 2 or 10 µM SIS3 (Smad3 inhibitor, Sigma-Aldrich, catalog #566405) in fresh medium and cultured for 24 hours.
(§2) Proteins were lysed using RIPA lysis buffer (25 mM Tris HCl pH 7.6, 150 mM NaCl, 1% NP-40, 1% sodium deoxycholate, 0.1% SDS) containing a protease inhibitor and a phosphatase inhibitor. Proteins were quantified by BCA protein assay, and the expression levels of pSmad2, Smad2, pSmad3, Smad3, TGFβ receptor 1, and GAPDH proteins were determined by Western blotting. For Western blotting, the sample was loaded in the same amount along with a size marker on an 8% SDS PAGE gel, electrophoresed for about 2 hours, and then transferred to a nitrocellulose membrane. The transferred membrane was blocked with 5% skim milk for 1 hour, and allowed to react with primary antibodies at a ratio of 1:1000 overnight. The primary antibodies used were pSmad2 (Cell Signaling, #3108), Smad2 (Cell Signaling, #5339), pSmad3 (Abcam, ab52903), Smad3 (Cell Signaling, #9513), TGFβ receptor1 (Abcam, ab31013), and GAPDH (Cell Signaling, #2118S). […]

[2] = test system: COL1A2 and COL3A1 gene expression; test: Inhibition of collagen gene expression in cells (real-time PCR); format: cell-based, human; conditions: IPF patient lung fibroblasts, 10 ng/ml TGF-β1 24 hours, then peptide 200 μM 24 hours; *p<0.05; FIG. 6
Procedure: The cells were seeded in a 24-well plate and cultured in starvation medium (Dulbecco's modified Eagle medium/F12 without FBS supplemented with 0.1 mM 2-phospho-L-ascorbic acid) for 24 hours. Recombinant Human TGF-β1 Protein (R&D Systems, #240-B-002) was diluted at 20 μg/ml in sterile 4 mM HCl containing 1 mg/ml bovine serum albumin. The cells were cultured for 24 hours in full growth media containing 10 ng/ml TGF-β1. The cells were treated with SEQ ID NO: 1 (200 μM), SEQ ID NO: 2 (200 μM), or nintedanib (10 μM) in fresh medium and cultured for 24 hours. The peptides were dissolved in purified water, nintedanib was dissolved in dimethyl sulfoxide, and the concentration of dimethyl sulfoxide in medium was set to 1%. The medium was removed, followed by washing with DPBS (Welgene, LB001-02) and cell lysis using 1 ml of a trizol reagent (Ambion, 15596). 250 μl of chloroform was added thereto, the tube was stirred, and centrifugation was performed at 10,000 rpm for 15 minutes. After removing the aqueous layer using a pipette, 550 μl of isopropanol (Sigma, 19516) was added and shaken gently. After centrifugation at 15,000 rpm for 25 minutes, isopropanol was removed, and 1 ml of 75% ethanol was added thereto. After removal of ethanol and drying in air, the pellets were dissolved in DEPC water (Invitrogen, AM9915G). The concentration of RNA was measured using a Nano Drop (Thermo Scientific, NanoDrop One, AZY1913798).
(§3) CDNA was synthesized from the extracted RNA using a Maxima First strand CDNA synthesis kit (Thermo Fisher, K1641) according to the manufacturer's protocol. In addition, real-time PCR was performed using QuantStudio 3 (Applied Biosystems, A28132) according to the manufacturer's protocol. PCR amplification was conducted by repeating 50 cycles at 95° C. for 30 seconds, 60° C. for 30 seconds, and 72° C. for 30 seconds.

[3] = test system: bleomycin-induced lung disease; conditions: bleomycin mice; for fibrous deposition in the lungs (Sirius Red and hematoxylin/phloxine staining) / area of fibrosis (Sirius Red): day 22; for fibrous deposition in the lungs (Sirius Red and hematoxylin/phloxine staining): peptides 30 mg/kg subcutaneously three times a week compared to NT and nintedanib groups, FIG. 8c; for area of fibrosis (Sirius Red): compared to NT group and nintedanib-treated group, P<0.05, FIG. 8d
Procedure: C57BL/6J mice (male, 7 weeks old) were purchased from Charles River. Mice were anesthetized by intraperitoneal administration of a mixture of Imalgene (ketamine, 100 mg/kg)/Rompun (xylazine, 20 mg/kg), and a total of 50 μl of bleomycin sulfate (1.45 mg/kg, MBcell, CA, USA) was injected intratracheally once, and saline was injected intratracheally in the normal group (day 0). On day 7, mice were divided into groups, each consisting of eight. PBS (NT), SEQ ID NO: 1 (30 mg/kg), and SEQ ID NO: 2 (30 mg/kg) were administered subcutaneously three times a week, and nintedanib (Fluorochem Ref=050741, 100 mg/kg) was administered orally daily. Each of the peptides of SEQ ID NO: 1 and SEQ ID NO: 2 was administered after dissolution in water for injection, and nintedanib was administered after mixing with water containing 0.5% hydroxyethylcellulose (Sigma; lot BCBV5033) and 0.01% Tween 80 (Sigma; lot BCBR6211V). While administering the drug for 21 days, body weight was measured every 2 days, and whether there were other clinical symptoms were checked.
After mice were sacrificed with isoflurane on day 22, lung tissue was excised therefrom and histological analysis was performed. Paraffin was introduced into the lungs, 5 μm paraffin sections were manufactured, Sirius Red staining and hematoxylin/phloxine staining were performed to evaluate the extent of pulmonary fibrosis and inflammation, and the extent of inflammation and fibrosis was observed through microscopy.
In order to quantify the fibrotic change, the area of the red (fibrotic portion) was quantified in the sample stained with Sirius Red.

[4] = target: T1, pSmad2 (Homo sapiens, UniProt Q15796); test: Inhibition of phosphorylation of Smad2 (Western blotting); format: cell-based; conditions: LX-2 cells, 10 ng/ml TGF-β1 24 hours, then peptide 10, 100 or 200 μM 24 hours; FIG. 5
T1 construct: LX-2 (Human hepatic stellate cell line, Millipore #SCC064); host or cells: LX-2 human hepatic stellate cell line
Procedure: as §1, §2

[5] = target: T2, pSmad3 (Homo sapiens, UniProt P84022); test: Inhibition of phosphorylation of Smad3 (Western blotting); format: cell-based; conditions: LX-2 cells, 10 ng/ml TGF-β1 24 hours, then peptide 10, 100 or 200 μM 24 hours; effect from 10 μM; FIG. 5
T2 construct: LX-2 (Human hepatic stellate cell line, Millipore #SCC064); host or cells: LX-2 human hepatic stellate cell line
Procedure: as §1, §2

[6] = test system: MET markers (E-cadherin, EpCAM) and EMT markers (N-cadherin, Twist1, Snail1); test: Reprogramming effects in cells: MET and EMT marker gene expression (real-time PCR); format: cell-based, human; conditions: LX-2 cells, 10 ng/ml TGF-beta1 and 100 μM peptide, 24 hours; FIG. 7
Procedure: The medium was removed, followed by washing with DPBS (Welgene, LB001-02) and cell lysis using 1 ml of a trizol reagent (Ambion, 15596). 250 μl of chloroform was added thereto, the tube was stirred, and centrifugation was performed at 10,000 rpm for 15 minutes. After removing the aqueous layer using a pipette, 550 μl of isopropanol (Sigma, 19516) was added and shaken gently. After centrifugation at 15,000 rpm for 25 minutes, isopropanol was removed, and 1 ml of 75% ethanol was added thereto. After removal of ethanol and drying in air, the pellets were dissolved in DEPC water (Invitrogen, AM9915G). The concentration of RNA was measured using a Nano Drop (Thermo Scientific, NanoDrop One, AZY1913798).
as §3, with “by repeating 40 cycles at” for “by repeating 50 cycles at”, “C. for 15 seconds, 60°” for “C. for 30 seconds, 60°”, “C. for 50 seconds, and” for “C. for 30 seconds, and”, “C. for 15 seconds.” for “C. for 30 seconds.”

[7] = test system: methionine-choline-deficient (MCD) diet-induced hepatitis and hepatic fibrosis; test: Methionine-choline-deficient diet mouse model (hepatitis and hepatic fibrosis); format: in vivo, C57BL/6J mice; conditions: MCD diet mice, peptide 20 mg/kg, 12 administrations at 3-day intervals, compared to NT group or GLP-1 agonist (liraglutide 0.2 mg/kg) group; for NAFLD activity score: FIGS. 9b, 9c; for area of fibrosis (Masson's trichrome-positive area): FIGS. 9d, 9e
Procedure: Male 6-week-old C57BL/6J mice were used, and divided into a normal diet group, a group not treated after feeding MCD diet, groups injected with the peptide of SEQ ID NO: 1 (20 mg/kg) and the peptide of SEQ ID NO: 2 (20 mg/kg), and a positive control group subcutaneously injected with liraglutide (0.2 mg/kg), which is a type of glucagon-like peptide 1 receptor agonist serving as a hepatitis therapeutic agent. After autonomous feeding of MCD diet for 10 weeks, 8 mice were assigned to each group and a therapeutic agent was administered thereto. Peptide and liraglutide were administered once a day, a total of 12 times at 3-day intervals (FIG. 9a). For all animals, body weight was measured immediately before initiation of administration and twice a week throughout the entire test. After the end of the last administration, the animals was anesthetized by intraperitoneal injection of 300 μl of Avertin, blood was collected from the abdominal vena cava by laparotomy, the liver and spleen were removed therefrom, and the weight of the removed organs was measured. Tissues were fixed in a neutral buffered formalin solution for all animals subjected to necropsy, and paraffin blocks were manufactured and sectioned through tissue processing. The tissue sections thus obtained were subjected to H&E staining. The H&E stained specimens were scored for steatosis, ballooning degeneration, and lobular inflammation (Table 3), and the extent of hepatic inflammation (NAFLD activity score) was measured. The tissue sections manufactured in the same manner as in Example 8-2 were stained with Masson's trichrome, and 100× magnification images were obtained with an optical microscope (BX51, Olympus, GER) at 5 randomly designated different sites among all Masson's trichrome-stained slides (300MI CMOS camera, […]). The blue-stained […] was measured (Image-Pro Plus, Media Cybernetics Inc., UK) and analyzed as a percentage (Masson's trichrome-positive area […]).

[8] = nintedanib 100 mg/kg orally daily
[9] = peptides 30 mg/kg subcutaneously three times a week

T1 sequence (Q15796 whole entry): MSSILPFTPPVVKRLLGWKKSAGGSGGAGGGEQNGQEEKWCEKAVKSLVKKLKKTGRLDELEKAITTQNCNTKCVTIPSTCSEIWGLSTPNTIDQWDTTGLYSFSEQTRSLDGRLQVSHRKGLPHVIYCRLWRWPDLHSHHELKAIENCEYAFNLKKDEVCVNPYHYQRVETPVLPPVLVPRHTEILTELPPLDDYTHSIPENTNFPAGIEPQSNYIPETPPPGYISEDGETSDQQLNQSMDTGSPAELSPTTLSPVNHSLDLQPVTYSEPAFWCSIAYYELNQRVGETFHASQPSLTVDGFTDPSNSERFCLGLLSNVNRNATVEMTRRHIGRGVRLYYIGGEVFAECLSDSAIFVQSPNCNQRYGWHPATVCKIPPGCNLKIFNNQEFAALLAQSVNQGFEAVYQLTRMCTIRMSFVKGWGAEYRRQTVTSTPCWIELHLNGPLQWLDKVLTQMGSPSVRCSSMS
T2 sequence (P84022 whole entry): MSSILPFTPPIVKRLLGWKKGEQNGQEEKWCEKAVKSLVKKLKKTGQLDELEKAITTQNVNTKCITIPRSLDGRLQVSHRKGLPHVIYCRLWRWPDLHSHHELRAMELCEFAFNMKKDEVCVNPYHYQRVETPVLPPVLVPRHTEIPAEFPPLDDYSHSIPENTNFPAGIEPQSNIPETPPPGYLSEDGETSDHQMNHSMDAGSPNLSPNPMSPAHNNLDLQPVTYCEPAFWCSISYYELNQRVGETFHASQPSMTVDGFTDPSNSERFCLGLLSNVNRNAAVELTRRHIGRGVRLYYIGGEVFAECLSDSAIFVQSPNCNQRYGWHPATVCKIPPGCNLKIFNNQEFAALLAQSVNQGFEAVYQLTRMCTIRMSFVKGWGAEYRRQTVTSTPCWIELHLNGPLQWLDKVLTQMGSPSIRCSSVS

Compound	expression level of the TGFβ receptor [1]	COL1A2 gene expression [2]	COL3A1 gene expression [2]	fibrous deposition in the lungs (Sirius Red and hematoxylin/phloxine staining) [3, 8]	area of fibrosis (Sirius Red) [3, 9]	expression of pSmad2 [4]	expression of pSmad3 [5]	gene expression of E-cadherin (MET marker) [6]	gene expression of EpCAM (MET marker) [6]	gene expression of N-cadherin (EMT marker) [6]	gene expression of Snail1 (EMT marker) [6]	gene expression of Twist1 (EMT marker) [6]	NAFLD activity score [7]	area of fibrosis (Masson's trichrome-positive area) [7]	change in body weight after treatment ([3]; day 0 to day 22, treatment from day 7, peptides 30 mg/kg subcutaneously three times a week, nintedanib 100 mg/kg orally daily, FIG. 8b)
GKCSTRGRKSSRRKK [SEQ ID NO: 2]	no change	significantly reduced	significantly reduced	significantly reduce fibrosis	significant reduction	decreased with an increase in the concentration	completely disappeared	increased	increased	decreased	decreased	decreased	significantly reduced	significantly reduce	–
YGLRSKSKKFRRPDIQYPDAT [SEQ ID NO: 1]	–	significantly reduced	significantly reduced	significantly reduce fibrosis	significant reduction	–	–	–	–	–	–	–	significantly reduced	significantly reduce	–
COC(=O)c1ccc2c(c1)NC(=O)/C2=C(\Nc1ccc(N(C)C(=O)CN2CCN(C)CC2)cc1)c1ccccc1 [nintedanib, reference compound]	–	–	–	some therapeutic effect, but a lot of deposited fibrous tissue was still observed	–	–	–	–	–	–	–	–	–	–	increased
